Data from article PMC7804203, “Targeting adaptor protein SLP76 of RAGE as a therapeutic approach for lethal sepsis” (Nature Communications, 2021).

B1: HMGB1: recombinant mouse HMGB1, Abcam (#ab181949) (protein, UniProt P63158 1-215, looked up)
High mobility group protein B1: MGKGDPKKPRGKMSSYAFFVQTCREEHKKKHPDASVNFSEFSKKCSERWKTMSAKEKGKFEDMAKADKARYEREMKTYIPPKGETKKKFKDPNAPKRPPSAFFLFCSEYRPKIKGEHPGLSIGDVAKKLGEMWNNTAADDKQPYEKKAAKLKEKYEKDIAAYRAKGKPDAAKKGVVKAEKSKKKKEEEDDEEDEEDEEEEEEEEDEDEEEDDDDE
B2: SAM domain of SLP76: synthesized peptide of SLP76 SAM domain used in SPRi (peptide)
peptide: WDPDSLADYFKKLNYKDCEKAVKKYHIDGARFLNLTENDIQKFPKLRVPILSKLSQEINKNEERRSI

Assays:
[1] = tested on: IL-6 secretion, RAW264.7 cells; test: ELISA of IL-6 from RAW264.7 cells pretreated with kinase inhibitors; assay type: cell-based; parameters: unit not given here
Method: (§1) Serum was separated from patient samples for measurement of AGEs with an ELISA kit (#MBS267540, MyBioSource, San Diego, CA, USA) according to the manufacturer’s instructions. […] Then, cultured cells were incubated with or without AGEs (100 μg/ml) for 12 h, and the supernatant was collected for the measurement of TNF (#MTA00B) and IL-6 (#M6000B) levels with ELISA kits (R&D Systems, Minneapolis, MN, USA) according to the manufacturer’s instructions.

[2] = tested on: TNF secretion, RAW264.7 cells; test: ELISA of TNF from RAW264.7 cells pretreated with kinase inhibitors; assay type: cell-based
Method: as §1

[3] = tested on: IKKα/β phosphorylation, BMDMs; test: Western blot, IKKα/β phosphorylation in WT or SLP76-/- BMDMs stimulated with HMGB1; assay type: cell-based, mice; settings: relative to WT Ctrl = 1
Method: (§2) Cultured cells in 6-well plates were harvested, washed twice with PBS, and lysed for 30 min on ice in 150 μl of cell lysis buffer (#9803) from CST (Boston, MA, USA) containing 1 mM PMSF and 2 μg/ml leupeptin. Proteins were quantified with the BCA method. Protein samples were resolved by 10% SDS-PAGE, transferred to a nitrocellulose (NC) membrane (#GE10600002), and blocked for 1 h with 5% nonfat milk in Tris-buffered saline containing 0.1% Tween 20 (TBST) at room temperature. After incubation with a specific primary antibody overnight at 4 °C, the membrane was washed with TBST three times. Then, the membrane was incubated with a secondary antibody for 1 h at room temperature. Enhanced chemiluminescence (ECL) (#32109, Thermo Fisher Scientific, Waltham, MA, USA) was used to visualize the protein bands, and images were acquired in a ChemiDoc™ Imaging System (Bio-Rad, Hercules, CA, USA). Each experiment was repeated at least three times.
(§3) BMDMs were isolated from WT, AGER knockout, and SLP76 knockout mice. Mice were euthanized, and the femur and tibia were isolated and sterilized in 70% ethanol for 15 s and then washed with PBS. A 25-gauge needle was used to flush out the bone marrow with DMEM supplemented with 1% FBS. Bone marrow cells were passed through a cell strainer (70 μm), washed with PBS, and plated into a […] dish at a density of 1 × 10^7 cells/10 ml medium. BMDMs were grown in DMEM supplemented with 10% FBS and M-CSF (#130-094-129) (20 ng/ml) at 37 °C, and the medium was refreshed on day 3. After growth for 7 days, the cells were ready for use in subsequent experiments.

[4] = tested on: p38 MAPK phosphorylation, BMDMs; test: Western blot, p38 MAPK phosphorylation in WT or SLP76-/- BMDMs stimulated with HMGB1; assay type: cell-based, mice; settings: for Relative p38 MAPK phosphorylation, Supplementary figure 12a: relative to WT Ctrl = 1
Method: as §2, §3

[5] = tested on: ERK1/2 phosphorylation, BMDMs; test: Western blot, ERK1/2 phosphorylation in WT or SLP76-/- BMDMs stimulated with HMGB1; assay type: cell-based, mice; settings: relative to WT Ctrl = 1
Method: as §2, §3

cytosolic tail of RAGE = test: SPRi binding affinity of SAM domain peptide to RAGE cytosolic tail peptide; settings: synthetic peptides, SAM 250, 500, 1000, 2000 nM, TBS pH 7.5, n=4
Method: To measure the binding affinity of the cytosolic tail of RAGE with the SAM domain of SLP76, a PlexArray HT A100 (Plexera, USA) was used to monitor the whole procedure in real time. Briefly, a chip with well-prepared biomolecular microarray was assembled with a plastic flow cell for sample loading. The synthesized peptide of RAGE cytosolic tail was prepared at 5 mM concentration in Tris-buffered saline (TBS) running buffer (20 mM Tris and 100 mM NaCl [pH 7.5]), and a 10 mM glycine-HCl buffer (pH 2.0) was used as regeneration buffer. The synthesized peptide of SLP76 SAM domain flowed at increasing concentrations (250, 500, 1000, 2000 nM). Binding data were collected and analyzed by a commercial SPRi analysis software (Plexera SPR Data Analysis Module, Plexera, USA).

[6] = AGEs-, inhibitor alone, replicate Exp1
[7] = AGEs-, inhibitor alone, replicate Exp2
[8] = AGEs-, inhibitor alone, replicate Exp3
[9] = inhibitor 1 h, then AGEs 100 μg/ml 12 h, replicate Exp1
[10] = inhibitor 1 h, then AGEs 100 μg/ml 12 h, replicate Exp2
[11] = inhibitor 1 h, then AGEs 100 μg/ml 12 h, replicate Exp3
[12] = AGEs-, inhibitor alone, replicate Exp1, in pg/mL
[13] = AGEs-, inhibitor alone, replicate Exp2, in pg/mL
[14] = AGEs-, inhibitor alone, replicate Exp3, in pg/mL
[15] = inhibitor 1 h, then AGEs 100 μg/ml 12 h, replicate Exp1, in pg/mL
[16] = inhibitor 1 h, then AGEs 100 μg/ml 12 h, replicate Exp2, in pg/mL
[17] = inhibitor 1 h, then AGEs 100 μg/ml 12 h, replicate Exp3, in pg/mL

Row | Molecule | IL-6 level in culture medium [1, 6] | IL-6 level in culture medium [1, 7] | IL-6 level in culture medium [1, 8] | IL-6 level in culture medium [1, 9] | IL-6 level in culture medium [1, 10] | IL-6 level in culture medium [1, 11] | TNF level in culture medium [2, 12] | TNF level in culture medium [2, 13] | TNF level in culture medium [2, 14] | TNF level in culture medium [2, 15] | TNF level in culture medium [2, 16] | TNF level in culture medium [2, 17] | other results
1 | C[S+]([O-])c1ccc(-c2nc(-c3ccncc3)c(-c3ccc(F)cc3)[nH]2)cc1 (centres unmarked) [SB203580] | 3.021 | 5.813 | 3.214 | 30.327 | 52.19 | 33.459 | 86.693 | 25.813 | 72.783 | 2106.86 | 5252.19 | 5785.62 | –
2 | COc1cccc(-c2cc(=O)c3ccccc3o2)c1N [PD98059] | 7.69 | 0 | 2.224 | 19.112 | 12.03 | 16.667 | 26.755 | – | 9.578 | 1779.92 | 1294.03 | 1283.56 | TNF level in culture medium [2, 7]: 0 pg/mL
3 | COc1cc(O)c2c(c1)oc(=O)c1c3cc(O)c(O)cc3oc21 [NF-kB inhibitor] | 8.8 | 7.706 | 6.631 | 22.657 | 39.53 | 43.441 | 256.62 | 271.706 | 441.431 | 3097.6 | 4273.53 | 5262.53 | –
4 | B1 | – | – | – | – | – | – | – | – | – | – | – | – | Relative IKKα/β phosphorylation, Supplementary figure 12c ([3]; SLP76-/-, Exp1): 0.8306; Relative IKKα/β phosphorylation, Supplementary figure 12c ([3]; SLP76-/-, Exp2): 2.523; Relative IKKα/β phosphorylation, Supplementary figure 12c ([3]; SLP76-/-, Exp3): 0.8014; Relative IKKα/β phosphorylation, Supplementary figure 12c ([3]; WT, Exp1): 3.067; Relative IKKα/β phosphorylation, Supplementary figure 12c ([3]; WT, Exp2): 3.67; Relative IKKα/β phosphorylation, Supplementary figure 12c ([3]; WT, Exp3): 5.409; Activation of proinflammatory signaling pathways ([4]; HMGB1 400 ng/ml, 15 min, p38 MAPK, ERK1/2, IKKα/β, text says RAW264.7 cells, figure BMDMs): activated proinflammatory signaling pathways via SLP76; Relative p38 MAPK phosphorylation, Supplementary figure 12a ([4]; SLP76-/-, Exp1): 2.8038; Relative p38 MAPK phosphorylation, Supplementary figure 12a ([4]; SLP76-/-, Exp2): 3.004; Relative p38 MAPK phosphorylation, Supplementary figure 12a ([4]; SLP76-/-, Exp3): 2.223; Relative p38 MAPK phosphorylation, Supplementary figure 12a ([4]; WT, Exp1): 7.041; Relative p38 MAPK phosphorylation, Supplementary figure 12a ([4]; WT, Exp2): 4.728; Relative p38 MAPK phosphorylation, Supplementary figure 12a ([4]; WT, Exp3): 5.924; Relative ERK1/2 phosphorylation, Supplementary figure 12b ([5]; SLP76-/-, Exp1): 7.033; Relative ERK1/2 phosphorylation, Supplementary figure 12b ([5]; SLP76-/-, Exp2): 9.087; Relative ERK1/2 phosphorylation, Supplementary figure 12b ([5]; SLP76-/-, Exp3): 4.787; Relative ERK1/2 phosphorylation, Supplementary figure 12b ([5]; WT, Exp1): 15.3469; Relative ERK1/2 phosphorylation, Supplementary figure 12b ([5]; WT, Exp2): 12.0882; Relative ERK1/2 phosphorylation, Supplementary figure 12b ([5]; WT, Exp3): 9.928
5 | B2 | – | – | – | – | – | – | – | – | – | – | – | – | Binding to cytosolic tail of RAGE (cytosolic tail of RAGE): dose-dependent binding
